Source: ChEMBL document CHEMBL1165956, “Design, synthesis, and pharmacological evaluation of N-(4-mono and 4,5-disubstituted thiazol-2-yl)-2-aryl-3-(tetrahydro-2H-pyran-4-yl)propanamides as glucokinase activators” (Bioorg Med Chem, 2010)
The source made the active and inactive calls. No cut-off for these calls is given here.

Columns and labels:
[1] = molecular target: T1, Hexokinase-4 (Homo sapiens, UniProt P35557); test: Activation of human glucokinase expressed in Escherichia coli BL21(DE3) coexpressing G6PDH by spectrometry
T1 sequence (P35557 whole entry): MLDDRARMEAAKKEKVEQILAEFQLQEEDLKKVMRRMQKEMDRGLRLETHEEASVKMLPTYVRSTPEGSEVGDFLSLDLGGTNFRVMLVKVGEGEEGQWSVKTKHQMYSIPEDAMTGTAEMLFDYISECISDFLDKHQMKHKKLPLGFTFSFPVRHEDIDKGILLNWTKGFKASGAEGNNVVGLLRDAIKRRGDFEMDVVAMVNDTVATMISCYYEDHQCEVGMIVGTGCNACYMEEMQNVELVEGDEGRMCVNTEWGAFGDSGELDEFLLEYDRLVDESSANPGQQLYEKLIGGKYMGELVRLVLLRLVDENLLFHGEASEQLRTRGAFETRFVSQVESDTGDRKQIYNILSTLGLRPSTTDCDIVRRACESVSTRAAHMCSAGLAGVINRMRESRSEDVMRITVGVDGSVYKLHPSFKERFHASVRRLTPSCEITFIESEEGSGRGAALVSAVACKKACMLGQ

[2] = Oral bioavailability in dog; type: ADME, organism-based, Canis lupus familiaris; conditions: in vivo
[3] = Oral bioavailability in rat; type: ADME, organism-based; conditions: in vivo
[4] = system: Mus musculus; test: Hypoglycemic activity in non-diabetic ICR mouse assessed as decrease in blood glucose at 3 mg/kg, po administered as single dose measured after 120 mins relative to control; type: functional, organism-based; design: dose 3 mg/kg
[5] = system: Mus musculus; test: Hypoglycemic activity in non-diabetic ICR mouse assessed as decrease in blood glucose at 3 mg/kg, po administered as single dose measured after 30 mins relative to control; type: functional; design: scale not given: the % may be the effect or the level left
[6] = system: Mus musculus; test: Hypoglycemic activity in non-diabetic ICR mouse assessed as decrease in blood glucose at 10 mg/kg, po administered as single dose measured after 30 mins relative to control; type: functional; design: scale not given: the % may be the effect or the level left
[7] = system: Mus musculus; test: Hypoglycemic activity in non-diabetic ICR mouse assessed as decrease in blood glucose at 10 mg/kg, po administered as single dose measured after 240 mins relative to control; type: functional, organism-based; design: dose 10 mg/kg
[8] = system: Mus musculus; test: Hypoglycemic activity in non-diabetic ICR mouse assessed as decrease in blood glucose at 50 mg/kg, po administered as single dose measured after 30 mins relative to control; type: functional; design: scale not given: the % may be the effect or the level left
[9] = system: Hepatocyte; test: Induction of glycogen synthesis in Sprague-Dawley rat hepatocytes at 20 uM after 4 hrs relative to control; type: functional
[10] = system: Mus musculus; test: Hypoglycemic activity in non-diabetic ICR mouse assessed as decrease in blood glucose at 50 mg/kg, po administered as single dose measured after 240 mins relative to control; type: functional, organism-based; design: dose 50 mg/kg
[11] = system: Mus musculus; test: Antihyperglycemic activity in diabetic C57BL/6J ob/ob mouse assessed as decrease in blood glucose at 20 mg/kg, po administered as single dose measured after 120 mins relative to control; type: functional, organism-based; design: dose 20 mg/kg
[12] = molecular target: T2, Hexokinase-4 (Rattus norvegicus, UniProt P17712)
T2 sequence (P17712 whole entry): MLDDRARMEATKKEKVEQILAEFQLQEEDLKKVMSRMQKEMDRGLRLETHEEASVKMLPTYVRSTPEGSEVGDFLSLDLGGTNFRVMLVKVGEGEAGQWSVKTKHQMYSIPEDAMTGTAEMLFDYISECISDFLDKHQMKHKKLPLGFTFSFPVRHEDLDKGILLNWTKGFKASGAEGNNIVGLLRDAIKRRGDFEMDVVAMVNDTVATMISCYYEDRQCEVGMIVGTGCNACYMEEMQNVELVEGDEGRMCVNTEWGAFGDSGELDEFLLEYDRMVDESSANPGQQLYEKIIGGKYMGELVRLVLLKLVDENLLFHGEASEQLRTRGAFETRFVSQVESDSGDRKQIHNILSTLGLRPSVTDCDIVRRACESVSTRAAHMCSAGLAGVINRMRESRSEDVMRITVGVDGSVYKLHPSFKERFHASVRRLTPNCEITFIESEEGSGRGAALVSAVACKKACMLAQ
Description: Induction of glucokinase-mediated 2-deoxy-D-[3H]glucose uptake in Sprague-Dawley rat hepatocytes after 4 hrs by liquid scintillation countingl

[13] = system: Mus musculus; test: Antihyperglycemic activity in diabetic C57BL/6J ob/ob mouse assessed as decrease in blood glucose at 50 mg/kg, po administered as single dose measured after 120 mins relative to control; type: functional, organism-based; design: dose 50 mg/kg
[14] = system: Mus musculus; test: Antihyperglycemic activity in diabetic C57BL/6J ob/ob mouse assessed as decrease in blood glucose at 50 mg/kg, po administered as single dose measured after 60 mins relative to control; type: functional, organism-based; design: dose 50 mg/kg
[15] = system: Mus musculus; test: Antihyperglycemic activity in diabetic C57BL/6J ob/ob mouse assessed as decrease in blood glucose at 50 mg/kg, po administered as single dose measured after 180 mins relative to control; type: functional, organism-based; design: dose 50 mg/kg
[16] = system: Mus musculus; test: Antihyperglycemic activity in diabetic C57BL/6J ob/ob mouse assessed as decrease in blood glucose at 20 mg/kg, po administered as single dose measured after 180 mins relative to control; type: functional, organism-based; design: dose 20 mg/kg

## CC(C)/C=C1\SC(NC(=O)C(CC2CCOCC2)c2ccc(S(=O)(=O)C3CC3)cc2)=NC1=O (stereo unspecified)
[1]
  EC50: Not Active

## CS(=O)(=O)c1ccc(C(CC2CCOCC2)C(=O)Nc2nccs2)cc1 (stereo unspecified)
[1]; read-out: EC50
  EC50: 1690 nM

## CC(C)c1csc(NC(=O)C(CC2CCOCC2)c2ccc(S(C)(=O)=O)cc2)n1 (stereo unspecified)
[1]; read-out: EC50
  EC50: 310 nM

## COC[C@H](C)Oc1cc(O[C@@H](C)Cc2ccccc2)cc(C(=O)Nc2ccc(C(=O)O)cn2)c1
[2]
  bioavailability: 100%
[3]
  bioavailability: 90%

## CS(=O)(=O)c1ccc(C(CC2CCOCC2)C(=O)Nc2nc(-c3ccc(F)cc3)cs2)cc1 (stereo unspecified)
[1]; read-out: EC50
  EC50: 1180 nM

## CC(C)Cc1csc(NC(=O)C(CC2CCOCC2)c2ccc(S(C)(=O)=O)cc2)n1 (stereo unspecified)
[1]; read-out: EC50
  EC50: 355 nM

## C=C(C)c1csc(NC(=O)C(CC2CCOCC2)c2ccc(S(=O)(=O)C3CC3)cc2)n1 (stereo unspecified)
[1]; read-out: EC50
  EC50: 158 nM

## CC(C)(C)c1csc(NC(=O)C(CC2CCOCC2)c2ccc(S(C)(=O)=O)cc2)n1 (stereo unspecified)
[1]; read-out: EC50
  EC50: 2930 nM

## CS(=O)(=O)c1ccc(C(CC2CCOCC2)C(=O)Nc2nc(C3CC3)cs2)cc1 (stereo unspecified)
[1]; read-out: EC50
  EC50: 1350 nM

## Cc1nc(NC(=O)C(CC2CCOCC2)c2ccc(S(C)(=O)=O)cc2)sc1C (stereo unspecified)
[1]; read-out: EC50
  EC50: 2860 nM

## O=C1N=C(NC(=O)C(CC2CCOCC2)c2ccc(S(=O)(=O)C3CC3)cc2)S/C1=C\c1ccccc1 (stereo unspecified)
[1]
  EC50: Not Active

## COc1ccc(-c2csc(NC(=O)C(CC3CCOCC3)c3ccc(S(C)(=O)=O)cc3)n2)cc1 (stereo unspecified)
[1]; read-out: EC50
  EC50: 1040 nM

## CC(C)c1csc(NC(=O)[C@H](CC2CCOCC2)c2ccc(S(=O)(=O)C3CC3)cc2)n1
[4]
  Activity: Active
[5]
  Activity: 12.7%
[6]
  Activity: 33.9%
[7]
  Activity: Active
[8]
  Activity: 40.7%
[9]
  Activity: 83.7%
[10]
  Activity: Active
[11]
  Activity: Active
[12]
  EC50: 26 nM
[13]
  Activity: Active
[14]
  Activity: Active
[15]
  Activity: Active
[16]
  Activity: Active

## CC(C)c1nc(NC(=O)C(CC2CCOCC2)c2ccc(S(=O)(=O)C3CC3)cc2)sc1Br (stereo unspecified)
[1]; read-out: EC50
  EC50: 320 nM

## O=C1CSC(NC(=O)C(CC2CCOCC2)c2ccc(S(=O)(=O)C3CC3)cc2)=N1 (stereo unspecified)
[1]; read-out: EC50
  EC50: 4680 nM

## CC(C)c1csc(NC(=O)[C@H](CC2CCOCC2)c2ccc(S(C)(=O)=O)cc2)n1
[1]; read-out: EC50
  EC50: 330 nM

## CS(=O)(=O)c1ccc(C(CC2CCOCC2)C(=O)Nc2nc3cc(F)ccc3s2)cc1 (stereo unspecified)
[1]
  EC50: Not Active

## Cc1nc(NC(=O)C(CC2CCOCC2)c2ccc(S(C)(=O)=O)cc2)sc1C(C)C (stereo unspecified)
[1]
  EC50: Not Active

## O=C(Nc1nc2c(s1)CCC2)C(CC1CCOCC1)c1ccc(S(=O)(=O)C2CC2)cc1 (stereo unspecified)
[1]; read-out: EC50
  EC50: 79 nM

## CCc1csc(NC(=O)C(CC2CCOCC2)c2ccc(S(C)(=O)=O)cc2)n1 (stereo unspecified)
[1]; read-out: EC50
  EC50: 1000 nM

## CN1CCc2nc(NC(=O)C(CC3CCOCC3)c3ccc(S(=O)(=O)C4CC4)cc3)sc2C1 (stereo unspecified)
[1]; read-out: EC50
  EC50: 2860 nM

## CC(C)c1nc(NC(=O)C(CC2CCOCC2)c2ccc(S(=O)(=O)C3CC3)cc2)sc1I (stereo unspecified)
[1]
  EC50: Not Active

## CS(=O)(=O)c1ccc(C(CC2CCOCC2)C(=O)Nc2nc(-c3ccccc3)cs2)cc1 (stereo unspecified)
[1]; read-out: EC50
  EC50: 724 nM
